Laboratory results: PubChem BioAssay (NCI)
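Test compounds were applied to cells in 96-well plates for 48 hours at 5 doses. Here, GI50 denotes the concentration required for 50% inhibition of growth. Definition used: TGI = concentration required for complete inhibition of growth.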

Assays:
Assay in all cases: growth of human tumour cells (NCI), 48 h
[1] = system: 786-0 renal
[2] = system: A498 renal
[3] = system: A549 NSCLC
[4] = system: ACHN renal
[5] = system: BT-549 breast
[6] = system: CAKI-1 renal
[7] = system: CCRF-CEM leukemia
[8] = system: COLO 205 colon
[9] = system: DU-145 prostate
[10] = system: HCC-2998 colon
[11] = system: HCT-116 colon
[12] = system: HCT-15 colon
[13] = system: HOP-62 NSCLC
[14] = system: HOP-92 NSCLC
[15] = system: HS 578T breast
[16] = system: HT29 colon
[17] = system: IGROV1 ovarian
[18] = system: K-562 leukemia
[19] = system: KM12 colon
[20] = system: LOX IMVI melanoma
[21] = system: M14 melanoma
[22] = system: MALME-3M melanoma
[23] = system: MCF7 breast
[24] = system: MDA-MB-231 breast
[25] = system: MDA-MB-435
[26] = system: MOLT-4 leukemia
[27] = system: NCI-H226 lung
[28] = system: NCI-H23 lung
[29] = system: NCI-H460 lung
[30] = system: NCI-H522 lung
[31] = system: NCI/ADR-RES ovarian
[32] = system: OVCAR-3 ovarian
[33] = system: OVCAR-4 ovarian
[34] = system: OVCAR-5 ovarian
[35] = system: OVCAR-8 ovarian
[36] = system: PC-3 prostate
[37] = system: RPMI-8226 leukemia
[38] = system: RXF 393 renal
[39] = system: SF-268 CNS
[40] = system: SF-539 CNS
[41] = system: SK-MEL-2 melanoma
[42] = system: SK-MEL-28 melanoma
[43] = system: SK-MEL-5 melanoma
[44] = system: SK-OV-3 ovarian
[45] = system: SN12C renal
[46] = system: SNB-19 CNS
[47] = system: SNB-75 CNS
[48] = system: SR leukemia
[49] = system: SW-620 colon
[50] = system: T-47D breast
[51] = system: TK-10 renal
[52] = system: UACC-62 melanoma
[53] = system: UO-31 renal

`Cc1ccc2cc3c(cc(C)c4ccccc43)c3c2c1CC3` was tested, and the GI50 [1] was > 100 µM, the TGI [1] was > 100 µM and the GI50 [2] was 76 µM. For the same compound, the TGI [2] was > 100 µM, the GI50 [3] was > 100 µM and the TGI [3] was > 100 µM. The GI50 [4] was 60.1 µM, the TGI [4] was > 100 µM and the GI50 [5] was > 100 µM. For the same compound, the TGI [5] was > 100 µM, the GI50 [6] was > 100 µM and the TGI [6] was > 100 µM. The GI50 [7] was > 100 µM, the TGI [7] was > 100 µM and the GI50 [8] was > 100 µM. The TGI [8] was > 100 µM, the GI50 [9] was > 100 µM and the TGI [9] was > 100 µM. The GI50 [10] was > 100 µM, the TGI [10] was > 100 µM and the GI50 [11] was > 100 µM. For the same compound, the TGI [11] was > 100 µM, the GI50 [12] was > 100 µM and the TGI [12] was > 100 µM. The GI50 [13] was 58.8 µM, the TGI [13] was > 100 µM and the GI50 [14] was 17.4 µM. The TGI [14] was 82.3 µM, the GI50 [15] was 89.1 µM and the TGI [15] was > 100 µM. The GI50 [16] was > 100 µM, the TGI [16] was > 100 µM and the GI50 [17] was > 100 µM. The TGI [17] was > 100 µM, the GI50 [18] was > 100 µM and the TGI [18] was > 100 µM. For the same compound, the GI50 [19] was > 100 µM, the TGI [19] was > 100 µM and the GI50 [20] was > 100 µM. The TGI [20] was > 100 µM, the GI50 [21] was > 100 µM and the TGI [21] was > 100 µM. For the same compound, the GI50 [22] was > 100 µM, the TGI [22] was > 100 µM and the GI50 [23] was 35.2 µM. For the same compound, the TGI [23] was > 100 µM, the GI50 [24] was 48.2 µM and the TGI [24] was > 100 µM. For the same compound, the GI50 [25] was > 100 µM, the TGI [25] was > 100 µM and the GI50 [26] was > 100 µM. The TGI [26] was > 100 µM, the GI50 [27] was > 100 µM and the TGI [27] was > 100 µM. For the same compound, the GI50 [28] was > 100 µM, the TGI [28] was > 100 µM and the GI50 [29] was > 100 µM. The TGI [29] was > 100 µM, the GI50 [30] was > 100 µM and the TGI [30] was > 100 µM. For the same compound, the GI50 [31] was > 100 µM, the TGI [31] was > 100 µM and the GI50 [32] was > 100 µM. The TGI [32] was > 100 µM, the GI50 [33] was > 100 µM and the TGI [33] was > 100 µM. The GI50 [34] was > 100 µM, the TGI [34] was > 100 µM and the GI50 [35] was > 100 µM. The TGI [35] was > 100 µM, the GI50 [36] was > 100 µM and the TGI [36] was > 100 µM. For the same compound, the GI50 [37] was > 100 µM, the TGI [37] was > 100 µM and the GI50 [38] was 57.2 µM. For the same compound, the TGI [38] was > 100 µM, the GI50 [39] was > 100 µM and the TGI [39] was > 100 µM. The GI50 [40] was > 100 µM, the TGI [40] was > 100 µM and the GI50 [41] was > 100 µM. For the same compound, the TGI [41] was > 100 µM, the GI50 [42] was > 100 µM and the TGI [42] was > 100 µM. The GI50 [43] was > 100 µM, the TGI [43] was > 100 µM and the GI50 [44] was > 100 µM. For the same compound, the TGI [44] was > 100 µM, the GI50 [45] was > 100 µM and the TGI [45] was > 100 µM. The GI50 [46] was > 100 µM, the TGI [46] was > 100 µM and the GI50 [47] was 26.7 µM. For the same compound, the TGI [47] was > 100 µM, the GI50 [48] was 87.5 µM and the TGI [48] was > 100 µM. The GI50 [49] was > 100 µM, the TGI [49] was > 100 µM and the GI50 [50] was > 100 µM. The TGI [50] was > 100 µM, the GI50 [51] was 65.6 µM and the TGI [51] was > 100 µM. The GI50 [52] was > 100 µM, the TGI [52] was > 100 µM and the GI50 [53] was > 100 µM. The TGI [53] was > 100 µM.
